We go through 1 compound from patent publication US9458137B2, “Substituted indol-5-ol derivatives and their therapeutical applications” (NantBioScience, Inc., priority 2012, dated 2016).

In test [1] the target is T1, Aurora-A(h) (Homo sapiens, UniProt O14965).
T1 construct: purchased Millipore (KinaseProfiler service)
Briefly: Kinase panel activity. It is filed as biochemical. As to conditions: 0.1 μM, ATP Km. The method, then: (§1) The effect of NTW-3475 on kinase activity was tested for a wide range of kinases and is shown in Table 2: Summary Sheet, Activity % ATP Concentration: Km

Test [2] has as its target B1k(h) (Homo sapiens, UniProt P51451). Briefly: Kinase panel activity. Format: biochemical. To be noted: 0.1 μM, ATP Km. As to the method:
as §1

The target of test [3] is CDK5/p25(h) (Homo sapiens, UniProt Q00535). Briefly: Kinase panel activity. Format: biochemical. To be noted: 0.1 μM, ATP Km. As to the method: as §1
In test [4] the target is CDK5/p35(h) (Homo sapiens, UniProt Q00535). Briefly: Kinase panel activity. Format: biochemical. To be noted: 0.1 μM, ATP Km. As to the method: as §1
Test [5] concerns the target CSK(h) (Homo sapiens, UniProt P41240). The test can be described thus: Kinase panel activity. Format: biochemical. To be noted: 0.1 μM, ATP Km. As to the method: as §1
Test [6] addresses DDR2(h) (Homo sapiens, UniProt Q16832). Briefly: Kinase panel activity. It is filed as biochemical. To be noted: 0.1 μM, ATP Km. As to the method: as §1
The target in test [7] is GSK3β(h) (Homo sapiens, UniProt P49841). The test can be described thus: Kinase panel activity. Format: biochemical. To be noted: 0.1 μM, ATP Km. The method, then:
as §1

Test [8] addresses Haspin(h) (Homo sapiens, UniProt Q8TF76). Briefly: Kinase panel activity. It is filed as biochemical. To be noted: 0.1 μM, ATP Km. The method, then: as §1
Test [9] addresses JAK2(h) (Homo sapiens, UniProt O60674). The test can be described thus: Kinase panel activity. Format: biochemical. As to conditions: 0.1 μM, ATP Km. As to the method: as §1
Test [10] addresses T2, MINK(h) (Homo sapiens, UniProt Q8N4C8).
T2 construct: purchased Millipore (KinaseProfiler service)
The test can be described thus: Kinase panel activity. Format: biochemical. As to conditions: 0.1 μM, ATP Km. The method, then:
as §1

Test [11] has as its target P1k3(h) (Homo sapiens, UniProt Q9H4B4). Briefly: Kinase panel activity. Format: biochemical. As to conditions: 0.1 μM, ATP Km. The method, then:
as §1

The target in test [12] is PKCι(h) (Homo sapiens, UniProt P41743). The test can be described thus: Kinase panel activity. It is filed as biochemical. As to conditions: 0.1 μM, ATP Km. The method, then: as §1
The target of test [13] is T3, RIPK2(h) (Homo sapiens, UniProt O43353).
T3 construct: purchased Millipore (KinaseProfiler service)
The test can be described thus: Kinase panel activity. Format: biochemical. To be noted: 0.1 μM, ATP Km. The method, then:
as §1

In test [14] the target is T4, Ret(V804L)(h) (Homo sapiens, UniProt P07949, V804L).
T4 construct: purchased Millipore (KinaseProfiler service)
Briefly: Kinase panel activity. Format: biochemical. As to conditions: 0.1 μM, ATP Km. The method, then: as §1

Test [15] addresses T5, SIK(h) (Homo sapiens, UniProt P57059).
T5 construct: purchased Millipore (KinaseProfiler service)
The test can be described thus: Kinase panel activity. It is filed as biochemical. As to conditions: 0.1 μM, ATP Km. The method, then: as §1

Test [16] addresses T6, TrkB(h) (Homo sapiens, UniProt Q16620).
T6 construct: purchased Millipore (KinaseProfiler service)
Briefly: Kinase panel activity. Format: biochemical. As to conditions: 0.1 μM, ATP Km. As to the method:
as §1

In test [17] the test system is TT human Thyroid carcinoma xenograft. The test can be described thus: TT thyroid carcinoma xenograft. Format: in vivo, nude mouse. To be noted: TT xenograft. The text has this: This example assesses NTW-3475's anti-tumor activity using a scid mouse xenograft models for leukemias and nude mouse xenograft models of endometrial, pancreatic and thyroid carcinomas. NTW-3475 combination therapy was also studied in murine xenografts.
FIGS. 36-38 depict the results of various concentrations of NTW-3456 on a nude mouse/xenograft the TT cell model of thyroid carcinoma.

CDK5/p25(h), sequence (Q00535 whole entry): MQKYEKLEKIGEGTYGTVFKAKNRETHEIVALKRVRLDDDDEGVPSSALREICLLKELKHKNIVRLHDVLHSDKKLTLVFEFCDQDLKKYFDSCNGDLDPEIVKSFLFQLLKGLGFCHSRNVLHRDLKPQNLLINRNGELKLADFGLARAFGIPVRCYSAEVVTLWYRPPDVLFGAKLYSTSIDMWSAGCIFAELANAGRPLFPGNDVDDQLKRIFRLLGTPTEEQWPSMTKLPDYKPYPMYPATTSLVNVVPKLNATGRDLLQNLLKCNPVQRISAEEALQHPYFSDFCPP
CDK5/p25(h), sequence (Q15078 99-307 partner limits assumed): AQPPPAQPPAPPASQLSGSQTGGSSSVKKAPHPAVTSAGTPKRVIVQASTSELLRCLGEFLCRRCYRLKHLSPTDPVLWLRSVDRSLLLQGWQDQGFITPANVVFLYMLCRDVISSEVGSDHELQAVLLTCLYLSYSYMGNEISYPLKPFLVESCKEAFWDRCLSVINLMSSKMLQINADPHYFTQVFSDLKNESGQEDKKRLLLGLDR
CDK5/p35(h), sequence (Q00535 whole entry): as the sequence (Q00535 whole entry) above
CDK5/p35(h), sequence (Q15078 whole entry partner): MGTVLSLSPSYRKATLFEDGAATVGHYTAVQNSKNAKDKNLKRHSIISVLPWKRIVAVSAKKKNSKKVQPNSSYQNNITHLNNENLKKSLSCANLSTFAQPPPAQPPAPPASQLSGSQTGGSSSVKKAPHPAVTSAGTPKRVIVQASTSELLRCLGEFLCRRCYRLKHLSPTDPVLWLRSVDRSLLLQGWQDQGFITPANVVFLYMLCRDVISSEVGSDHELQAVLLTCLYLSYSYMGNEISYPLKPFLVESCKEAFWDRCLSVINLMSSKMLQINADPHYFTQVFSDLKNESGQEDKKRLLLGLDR
P1k3(h), sequence (Q9H4B4 whole entry): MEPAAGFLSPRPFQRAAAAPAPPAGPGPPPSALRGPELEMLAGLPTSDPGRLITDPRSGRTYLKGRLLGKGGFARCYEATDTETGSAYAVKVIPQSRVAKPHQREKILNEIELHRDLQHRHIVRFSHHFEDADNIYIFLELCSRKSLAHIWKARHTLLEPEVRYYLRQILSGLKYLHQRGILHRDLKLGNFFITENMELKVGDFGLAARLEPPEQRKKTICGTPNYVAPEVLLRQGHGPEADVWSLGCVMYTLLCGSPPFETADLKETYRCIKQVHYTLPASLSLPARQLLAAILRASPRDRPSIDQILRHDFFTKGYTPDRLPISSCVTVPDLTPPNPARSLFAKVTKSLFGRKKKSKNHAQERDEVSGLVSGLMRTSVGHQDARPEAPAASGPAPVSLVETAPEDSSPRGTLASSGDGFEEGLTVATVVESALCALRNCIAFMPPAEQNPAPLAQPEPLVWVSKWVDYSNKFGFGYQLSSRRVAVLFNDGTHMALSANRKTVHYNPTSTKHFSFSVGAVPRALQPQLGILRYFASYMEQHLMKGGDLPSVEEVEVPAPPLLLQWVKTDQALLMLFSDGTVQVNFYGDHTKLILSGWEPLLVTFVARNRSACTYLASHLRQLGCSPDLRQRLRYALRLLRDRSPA
JAK2(h), sequence (O60674 whole entry): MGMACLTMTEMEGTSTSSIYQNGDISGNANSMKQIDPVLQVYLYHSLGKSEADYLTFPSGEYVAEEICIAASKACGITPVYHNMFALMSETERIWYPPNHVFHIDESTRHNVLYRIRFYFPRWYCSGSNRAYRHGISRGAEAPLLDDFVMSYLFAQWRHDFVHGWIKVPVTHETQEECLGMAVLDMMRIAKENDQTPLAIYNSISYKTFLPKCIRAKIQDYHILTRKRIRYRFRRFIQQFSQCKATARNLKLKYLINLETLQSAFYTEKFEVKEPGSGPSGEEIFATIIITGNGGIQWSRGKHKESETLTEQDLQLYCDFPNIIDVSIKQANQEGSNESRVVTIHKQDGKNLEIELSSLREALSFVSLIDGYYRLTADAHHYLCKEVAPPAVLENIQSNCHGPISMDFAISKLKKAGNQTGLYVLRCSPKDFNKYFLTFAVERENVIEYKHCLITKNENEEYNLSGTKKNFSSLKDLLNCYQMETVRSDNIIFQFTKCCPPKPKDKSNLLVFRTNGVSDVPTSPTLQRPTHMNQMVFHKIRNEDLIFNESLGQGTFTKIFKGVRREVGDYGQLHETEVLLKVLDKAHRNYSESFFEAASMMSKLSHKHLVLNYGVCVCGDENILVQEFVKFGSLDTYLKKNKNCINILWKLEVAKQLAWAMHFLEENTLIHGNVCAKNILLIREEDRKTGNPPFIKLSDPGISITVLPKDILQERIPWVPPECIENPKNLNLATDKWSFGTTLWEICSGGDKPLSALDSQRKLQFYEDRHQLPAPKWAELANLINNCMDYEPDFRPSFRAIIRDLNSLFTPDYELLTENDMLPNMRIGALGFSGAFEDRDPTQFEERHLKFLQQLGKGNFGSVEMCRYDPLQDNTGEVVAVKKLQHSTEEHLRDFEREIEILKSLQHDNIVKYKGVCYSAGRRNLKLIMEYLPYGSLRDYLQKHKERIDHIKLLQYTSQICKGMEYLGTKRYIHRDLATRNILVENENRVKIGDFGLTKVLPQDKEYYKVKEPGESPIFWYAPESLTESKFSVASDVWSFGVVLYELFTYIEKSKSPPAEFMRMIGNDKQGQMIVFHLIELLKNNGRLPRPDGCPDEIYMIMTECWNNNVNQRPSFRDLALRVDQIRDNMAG
T1 sequence (O14965 whole entry): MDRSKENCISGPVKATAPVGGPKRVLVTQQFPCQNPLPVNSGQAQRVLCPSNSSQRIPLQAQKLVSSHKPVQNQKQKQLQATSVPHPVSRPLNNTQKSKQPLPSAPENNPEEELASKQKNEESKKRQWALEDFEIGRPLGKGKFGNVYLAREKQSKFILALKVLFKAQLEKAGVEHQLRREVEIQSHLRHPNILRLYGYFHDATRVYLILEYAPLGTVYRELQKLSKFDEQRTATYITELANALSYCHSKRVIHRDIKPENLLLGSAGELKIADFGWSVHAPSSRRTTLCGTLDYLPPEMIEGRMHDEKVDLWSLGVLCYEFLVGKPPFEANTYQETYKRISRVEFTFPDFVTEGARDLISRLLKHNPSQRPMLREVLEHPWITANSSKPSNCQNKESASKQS
Haspin(h), sequence (Q8TF76 whole entry): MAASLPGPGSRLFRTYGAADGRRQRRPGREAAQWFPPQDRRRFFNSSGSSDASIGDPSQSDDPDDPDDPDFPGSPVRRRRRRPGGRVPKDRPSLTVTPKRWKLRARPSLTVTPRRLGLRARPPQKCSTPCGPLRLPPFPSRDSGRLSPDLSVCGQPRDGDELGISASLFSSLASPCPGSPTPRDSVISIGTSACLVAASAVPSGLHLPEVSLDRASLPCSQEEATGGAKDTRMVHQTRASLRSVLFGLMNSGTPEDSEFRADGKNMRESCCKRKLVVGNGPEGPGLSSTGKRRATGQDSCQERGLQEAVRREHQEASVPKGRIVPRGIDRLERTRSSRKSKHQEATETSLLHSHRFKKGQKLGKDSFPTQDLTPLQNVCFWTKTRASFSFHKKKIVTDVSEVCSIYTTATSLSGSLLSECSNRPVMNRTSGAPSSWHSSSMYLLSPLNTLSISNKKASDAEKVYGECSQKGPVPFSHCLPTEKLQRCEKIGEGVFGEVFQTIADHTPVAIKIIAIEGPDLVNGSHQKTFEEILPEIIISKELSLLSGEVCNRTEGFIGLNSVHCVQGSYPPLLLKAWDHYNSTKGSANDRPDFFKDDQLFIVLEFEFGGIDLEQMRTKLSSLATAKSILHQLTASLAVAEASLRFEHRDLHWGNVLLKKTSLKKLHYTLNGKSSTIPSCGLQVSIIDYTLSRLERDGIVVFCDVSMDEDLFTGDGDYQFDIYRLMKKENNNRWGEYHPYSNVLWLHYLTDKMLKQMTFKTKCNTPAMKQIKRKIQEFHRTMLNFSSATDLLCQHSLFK
T5 sequence (P57059 whole entry): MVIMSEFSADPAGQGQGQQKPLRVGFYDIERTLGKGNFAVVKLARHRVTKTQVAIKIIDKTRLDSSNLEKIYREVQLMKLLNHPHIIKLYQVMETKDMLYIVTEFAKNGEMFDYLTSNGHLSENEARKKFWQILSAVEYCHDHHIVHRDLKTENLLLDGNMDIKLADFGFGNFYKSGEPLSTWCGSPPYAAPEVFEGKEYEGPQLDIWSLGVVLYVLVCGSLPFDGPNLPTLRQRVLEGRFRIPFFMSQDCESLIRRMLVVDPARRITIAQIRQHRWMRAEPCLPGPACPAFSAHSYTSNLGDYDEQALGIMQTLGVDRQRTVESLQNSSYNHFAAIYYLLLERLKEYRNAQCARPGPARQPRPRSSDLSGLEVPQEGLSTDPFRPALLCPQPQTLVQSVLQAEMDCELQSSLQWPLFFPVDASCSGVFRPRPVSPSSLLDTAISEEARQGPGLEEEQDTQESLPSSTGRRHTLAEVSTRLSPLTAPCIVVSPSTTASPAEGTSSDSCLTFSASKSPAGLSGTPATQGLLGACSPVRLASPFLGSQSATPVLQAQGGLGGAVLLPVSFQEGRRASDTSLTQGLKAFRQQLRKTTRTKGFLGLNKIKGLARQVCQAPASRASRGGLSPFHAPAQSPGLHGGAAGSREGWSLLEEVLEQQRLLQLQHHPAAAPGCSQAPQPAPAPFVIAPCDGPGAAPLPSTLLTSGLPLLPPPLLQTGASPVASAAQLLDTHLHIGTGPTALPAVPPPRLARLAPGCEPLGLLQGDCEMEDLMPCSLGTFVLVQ

For `Cc1cc2c(F)c(Oc3nc(Nc4cc(C5CC5)[nH]n4)cc(N4CCN(C)CC4)n3)cc(F)c2[nH]1` [NTW-3475], the Activity % in test [1] is on record as 7%; in test [2], 9%; in test [3], 60%; in test [4] it was 77%; in test [5], 75%; in test [6], 9%. For the same compound, the Activity % is 106% in test [7]; 96% in [8]; 8% in test [9]; 75% in test [10]; 95% in test [11]; 105% in test [12]. In addition, the Activity % in test [13] is given as 90%; in test [14] it was −4%; in test [15] it was 33%; in [16], 1%. Further, the anti-tumor effect result in test [17] is listed as “anti-tumor effect”.
